From ChEMBL document CHEMBL2074566, “Azithromycin reverses anticancer drug resistance and modifies hepatobiliary excretion of doxorubicin in rats” (Eur J Pharmacol, 2004)

Biological target: ATP-dependent translocase ABCB1 (Homo sapiens, UniProt P08183)
Test: TP_TRANSPORTER: cell accumulation of doxorubicin in the presence of Azithromycin at a concentration of 0.3uM and 1mM in K562/ADR cells
Type: functional, cell-based

Sequence of ATP-dependent translocase ABCB1 (P08183 whole entry): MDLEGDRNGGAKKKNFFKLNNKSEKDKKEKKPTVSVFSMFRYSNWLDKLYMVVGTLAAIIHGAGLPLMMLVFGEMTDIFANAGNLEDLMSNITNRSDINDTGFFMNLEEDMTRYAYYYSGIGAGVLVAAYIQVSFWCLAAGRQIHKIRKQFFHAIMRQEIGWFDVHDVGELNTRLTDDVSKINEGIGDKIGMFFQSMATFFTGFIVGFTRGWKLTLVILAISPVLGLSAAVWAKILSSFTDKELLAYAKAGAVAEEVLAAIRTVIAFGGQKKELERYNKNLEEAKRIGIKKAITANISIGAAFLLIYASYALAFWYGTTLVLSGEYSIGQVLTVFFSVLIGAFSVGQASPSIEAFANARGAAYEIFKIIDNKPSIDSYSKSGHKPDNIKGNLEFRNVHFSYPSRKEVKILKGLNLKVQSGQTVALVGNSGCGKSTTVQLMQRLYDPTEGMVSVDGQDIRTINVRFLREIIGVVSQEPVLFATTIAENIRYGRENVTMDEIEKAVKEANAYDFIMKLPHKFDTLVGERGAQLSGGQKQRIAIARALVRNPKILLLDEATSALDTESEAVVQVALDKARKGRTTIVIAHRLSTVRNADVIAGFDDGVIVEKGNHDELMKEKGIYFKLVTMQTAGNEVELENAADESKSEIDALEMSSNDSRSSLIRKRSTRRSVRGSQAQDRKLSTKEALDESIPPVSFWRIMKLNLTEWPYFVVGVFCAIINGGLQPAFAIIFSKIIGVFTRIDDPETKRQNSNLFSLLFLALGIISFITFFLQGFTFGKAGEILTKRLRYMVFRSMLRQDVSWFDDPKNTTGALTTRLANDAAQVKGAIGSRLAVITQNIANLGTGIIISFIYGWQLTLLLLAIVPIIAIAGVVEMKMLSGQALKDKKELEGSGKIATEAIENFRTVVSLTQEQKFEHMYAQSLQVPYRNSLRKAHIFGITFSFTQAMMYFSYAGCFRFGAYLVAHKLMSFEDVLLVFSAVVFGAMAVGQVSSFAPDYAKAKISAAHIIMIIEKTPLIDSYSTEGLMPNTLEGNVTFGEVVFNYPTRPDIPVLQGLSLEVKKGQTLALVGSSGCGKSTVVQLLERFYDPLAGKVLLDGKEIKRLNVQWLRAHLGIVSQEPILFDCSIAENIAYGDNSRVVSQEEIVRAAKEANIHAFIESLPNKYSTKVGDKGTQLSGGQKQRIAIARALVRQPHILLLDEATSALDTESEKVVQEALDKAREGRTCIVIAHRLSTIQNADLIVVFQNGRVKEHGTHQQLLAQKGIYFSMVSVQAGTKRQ

SMILES: CC[C@H]1OC(=O)[C@H](C)[C@@H](O[C@H]2C[C@@](C)(OC)[C@@H](O)[C@H](C)O2)[C@H](C)[C@@H](O[C@@H]2O[C@H](C)C[C@H](N(C)C)[C@H]2O)[C@](C)(O)C[C@@H](C)CN(C)[C@H](C)[C@@H](O)[C@]1(C)O [AZITHROMYCIN]
- Activity: inhibitor [+]
